One assay relates to MDA-MB-231. The assay is described as follows: Cell growth test (Cell Titer Blue) MDA-MB-231. The conditions noted are these: Homo sapiens, 72 h, MDA-MB-231, Breast cancer, 3 days. It counts as cell-based. As for the experimental part:
(§1) Moreover, the compound of Example 14 was subjected to a cell growth test using various types of cell lines.
(§2) All cell lines other than the below-noticed cells were each seeded in a well plate, in which an RPMI-1640 medium supplemented with penicillin/streptomycin and FBS with a final concentration of 10% was placed. The human prostate cancer cell line VCaP (ATCC) was seeded in a well plate, in which DMEM medium supplemented with penicillin/streptomycin and FBS with a final concentration of 10% was placed. […] Thereafter, using Enspire Multimode Plate Reader (PerkinElmer), the amount of fluorescence at an excitation wavelength of 531 nm and a fluorescence wavelength of 615 nm was measured. Since the amount of fluorescence is in proportion to the concentration of a florescent product resorufin that is converted from resazurin as a redox dye by living cells, the amount of fluorescence was used as an indicator of the number of living cells. The growth inhibition percentage of the test compound in each concentration was calculated according to the following equation. Growth inhibition percentage (%)=(amount of fluorescence in test compound−added well)/(amount of fluorescence in DMSO−added well)×100 […]
(In general: Resazurin is reduced to fluorescent resorufin, in cell work by metabolically active cells.)

For the next assay, the system named is KM12. Put plainly: Cell growth test (Cell Titer Blue) KM12. It counts as cell-based. Particulars: Homo sapiens, 72 h, KM12, Colon cancer, 3 days. The method, then: as §1, §2
The subject of a further assay is NCI-H460. Put plainly: Cell growth test (Cell Titer Blue) NCI-H460. It counts as cell-based. Particulars: Homo sapiens, 72 h, NCI-H460, Lung cancer, 3 days. As for the experimental part: as §1, §2
Another assay deals with T47D. Put plainly: Cell growth test (Cell Titer Blue) T47D. It counts as cell-based. Particulars: Homo sapiens, 72 h, Breast cancer, 3 days. The method, then: as §1, §2
The test system of the next assay is LNCaP. The assay is described as follows: Cell growth test (Cell Titer Blue) LNCaP. It counts as cell-based. Particulars: Homo sapiens, 72 h, Prostate cancer, 3 days. As for the experimental part:
as §1, §2

The test system of the next assay is NOMO-1. Put plainly: Cell growth test (Cell Titer Blue) NOMO-1. It is filed as cell-based. Particulars: Homo sapiens, 72 h, NOMO-1, Acute myeloid leukemia, 3 days. As for the experimental part:
as §1, §2

A further assay deals with KG-1A. The assay is described as follows: Cell growth test (Cell Titer Blue) KG-1A. It is filed as cell-based. The conditions noted are these: Homo sapiens, 72 h, Acute myeloid leukemia, 3 days. The method, then: as §1, §2
A further assay relates to MKN45. Put plainly: Cell growth test (Cell Titer Blue) MKN45. It counts as cell-based. Particulars: Homo sapiens, MKN-45, 72 h, MKN45, Stomach cancer, 3 days. The method, then: as §1, §2
Another assay deals with c-Myc gene. The assay is described as follows: Intratumoral expression of c-Myc gene in MV4-11-subcutaneously-transplanted cancer-bearing mouse models, RT-PCR. It counts as in vivo. Particulars: 30 mg/kg. The method, then: According to an RT-PCR method, a fluctuation in the intratumoral expression of a c-Myc gene in MV4-11-subcutaneously-transplanted cancer-bearing mouse models, to which a test compound had been administered, was analyzed.
The compound of Example 14 was dissolved in a solvent (a 0.5% methyl cellulose aqueous solution or water containing 1 equivalent of hydrochloric acid), and the obtained solution was then orally administered to the mice at a dose of 30 mg/kg. As a negative control, a solvent administration group (vehicle) involving administration of a 0.5% methyl cellulose aqueous solution was established. Moreover, the test compound was dissolved in a solvent (a normal saline containing 1 equivalent of hydrochloric acid), and the obtained solution was then intravenously administered to the mice at a dose of 30 mg/kg. As a negative control, a solvent administration group (vehicle) involving administration of a normal saline was established. From MV4-11-subcutaneously-transplanted cancer-bearing mice involving oral or intravenous administration of the test compound, tumor was excised 1, 3, 6 and 24 hours (hr) after the administration. […] A PCR reaction was carried out by the same method as that of Test Example 5, and a fluctuation in the gene expression of GAPDH and c-Myc in the tumor was then evaluated.

With `CCn1c(=O)cc(C2CCN(C)CC2)c2cc(C(=O)N(C)c3ccc(C)cc3)ccc21` [Example 14, 1-Ethyl-N-methyl-N-(4-methylphenyl)-4-(1-methylpiperidin-4-yl)-2-oxo-1,2-dihydroquinoline-6-carboxamide], the concentration for 50% growth inhibition (GI50) in the assay on MDA-MB-231 worked out at 85 nM; in the assay with KM12, 1490 nM; in the assay with NCI-H460, 2030 nM; in the assay on T47D it was 286 nM; with LNCaP it was 64 nM; in the assay on NOMO-1, 62 nM. Moreover, the 50% growth inhibitory concentration (GI50) in the assay on KG-1A turned out to be 119 nM; in the assay with MKN45 it was 2180 nM. The “intratumoral expression of the c-Myc gene” value was “decreased” with c-Myc gene (intravenously, tumor excised 1, 3, 6 and 24 hr after administration (FIG. 4)); “decreased” in the assay with c-Myc gene (orally, tumor excised 1, 3, 6 and 24 hr after administration (FIG. 5)).

In general, GI50 refers to the concentration at which growth is held to half of that of the control. A higher GI50 goes with lower sensitivity of the cells.

Source of the values: patent US10987349B2, “Antitumor agent and bromodomain inhibitor” (FUJIFILM Corporation, priority 2016, dated 2021).
